For 16 molecules, Kd and IC50 results are on record in US20250188093A1, “TYK2 INHIBITORS AND USES THEREOF” (Alumis Inc., priority 2022, published 2025).

The target of one test is T1, JAK1 JH2 (Homo sapiens, UniProt P23458).
T1 construct: JAK1 JH2
Put plainly: KINOMEscan binding, JAK1 JH2.

The next test concerns the target T2, JAK2 JH2 (Homo sapiens, UniProt O60674).
T2 construct: JAK2 JH2
Nature of the test: KINOMEscan binding, JAK2 JH2.

The next test concerns the target T3, TYK2 JH1 (Homo sapiens, UniProt P29597).
T3 construct: TYK2 JH1
T3 sequence (P29597 897-1176 limits assumed): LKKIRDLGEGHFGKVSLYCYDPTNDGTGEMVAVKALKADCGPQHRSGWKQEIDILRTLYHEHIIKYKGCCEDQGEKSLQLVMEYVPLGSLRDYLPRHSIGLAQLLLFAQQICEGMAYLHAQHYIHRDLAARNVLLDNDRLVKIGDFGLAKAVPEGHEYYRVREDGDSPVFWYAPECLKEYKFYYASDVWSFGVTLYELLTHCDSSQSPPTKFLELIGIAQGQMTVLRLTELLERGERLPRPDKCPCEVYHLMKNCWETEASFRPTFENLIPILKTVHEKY
Nature of the test: KINOMEscan binding, TYK2 JH1.

The next test addresses T4, JAK3 JH1 (Homo sapiens, UniProt P52333).
T4 construct: JAK3 JH1
Nature of the test: KINOMEscan binding, JAK3 JH1.

Test [1] has as its target T5, human TYK2 (JH2domain-pseudokinase) (Homo sapiens, UniProt P29597).
T5 construct: host or cells: transiently transfected HEK293 cells; unpurified extract
Put plainly: TYK2 JH2 domain binding assay (KINOMEscan). Here is the method:
Binding constants for the compounds described herein against the JH2 domain were determined by the following protocol for a KINOMEscan® assay (DiscoveRx). A fusion protein of a partial length construct of human TYK2 (JH2domain-pseudokinase) (amino acids G556 to D888 based on reference sequence NP_003322.3) and the DNA binding domain of NFkB was expressed in transiently transfected HEK293 cells. From these HEK 293 cells, extracts were prepared in M-PER extraction buffer (Pierce) in the presence of Protease Inhibitor Cocktail Complete (Roche) and Phosphatase Inhibitor Cocktail Set II (Merck) per manufacturers' instructions. The TYK2 (JH2domain-pseudokinase) fusion protein was labeled with a chimeric double-stranded DNA tag containing the NFkB binding site fused to an amplicon for qPCR readout, which was added directly to the expression extract (the final concentration of DNA-tag in the binding reaction is 0.1 nM).
Streptavidin-coated magnetic beads (Dynal M280) were treated with a biotinylated small molecule ligand for 30 minutes at room temperature to generate affinity resins the binding assays. The liganded beads were blocked with excess biotin and washed with blocking buffer (SeaBlock (Pierce), 1% BSA, 0.05% Tween 20, 1 mM DTT) to remove unbound ligand and to reduce nonspecific binding.
The binding reaction was assembled by combining 16 μl of DNA-tagged kinase extract, 3.8 μl liganded affinity beads, and 0.18 μl test compound (PBS/0.05% Tween 20/10 mM DTT/0.1% BSA/2 μg/ml sonicated salmon sperm DNA)]. Extracts were used directly in binding assays without any enzyme purification steps at a ≥10,000-fold overall stock dilution (final DNA-tagged enzyme concentration <0.1 nM). Extracts were loaded with DNA-tag and diluted into the binding reaction in a two-step process. First extracts were diluted 1:100 in 1× binding buffer (PBS/0.05% Tween 20/10 mM DTT/0.1% BSA/2 μg/ml sonicated salmon sperm DNA) containing 10 nM DNA-tag. This dilution was allowed to equilibrate at room temperature for 15 minutes and then subsequently diluted 1:100 in 1× binding buffer. Test compounds were prepared as 111× stocks in 100% DMSO. Kds were determined using an 11-point 3-fold compound dilution series with three DMSO control points. All compounds for Kd measurements were distributed by acoustic transfer (non-contact dispensing) in 100% DMSO. The compounds were then diluted directly into the assays such that the final concentration of DMSO was 0.9%. All reactions were performed in polypropylene 384-well plates. Each was a final volume of 0.02 mL. Assays were incubated with shaking for 1 hour at room temperature. Then the beads were pelleted and washed with wash buffer (1×PBS, 0.05% Tween 20) to remove displaced kinase and test compound. The washed based were re-suspended in elution buffer (1×PBS, 0.05% Tween 20, 0.5 μM non-biotinylated affinity ligand) and incubated at room temperature with shaking for 30 minutes. The kinase concentration in the eluates was measured by qPCR. qPCR reactions were assembled by adding 2.5 μL of kinase eluate to 7.5 μL of qPCR master mix containing 0.15 μM amplicon primers and 0.15 μM amplicon probe. The qPCR protocol consisted of a 10 minute hot start at 95° C., followed by 35 cycles of 95° C. for 15 seconds, 60° C. for 1 minute.
Test compounds were prepared as 111× stocks in 100% DMSO. Kds were determined using an 11-point 3-fold compound dilution series with three DMSO control points. All compounds for Kd measurements were distributed by acoustic transfer (non-contact dispensing) in 100% DMSO. The compounds were then diluted directly into the assays such that the final concentration of DMSO was 0.9%. The Kds were determined using a compound top concentration of 30,000 nM. Kd measurements were performed in duplicate.
Binding constants (Kds) were calculated with a standard dose-response curve using the Hill equation: […]
The Hill Slope was set to −1. […]

In another test the target is T6, JAK2 JH1 (Homo sapiens, UniProt O60674).
T6 construct: JAK2 JH1
T6 sequence (O60674 849-1124 limits assumed): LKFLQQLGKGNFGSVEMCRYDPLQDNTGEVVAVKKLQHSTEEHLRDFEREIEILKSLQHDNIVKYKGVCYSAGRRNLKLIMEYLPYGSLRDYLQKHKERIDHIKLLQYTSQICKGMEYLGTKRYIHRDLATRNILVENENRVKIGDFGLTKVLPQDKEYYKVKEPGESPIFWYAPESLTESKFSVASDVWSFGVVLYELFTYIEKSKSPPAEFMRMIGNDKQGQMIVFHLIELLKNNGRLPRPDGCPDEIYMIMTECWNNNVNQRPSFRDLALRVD
Nature of the test: KINOMEscan binding, JAK2 JH1.

The target of a further test is T7, JAK1 JH1 (Homo sapiens, UniProt P23458).
T7 construct: JAK1 JH1
T7 sequence (P23458 875-1153 limits assumed): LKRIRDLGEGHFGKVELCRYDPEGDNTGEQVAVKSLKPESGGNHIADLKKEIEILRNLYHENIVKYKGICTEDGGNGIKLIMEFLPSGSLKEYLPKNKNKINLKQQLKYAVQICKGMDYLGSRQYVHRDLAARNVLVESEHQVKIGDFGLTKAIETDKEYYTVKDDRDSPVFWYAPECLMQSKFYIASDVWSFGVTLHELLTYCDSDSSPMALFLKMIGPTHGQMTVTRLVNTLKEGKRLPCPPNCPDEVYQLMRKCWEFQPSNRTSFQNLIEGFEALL
Put plainly: KINOMEscan binding, JAK1 JH1.

A further test has as its system IFNa, PBMCs, p-STAT5. Put plainly: INFα induced pSTAT5 in human PBMC. Format: cell-based. Particulars: 0.25 h, IFNa 5000 units/ml, 15 minutes. Here is the method: Fresh Human PBMCs were resuspended in RPMI 1640 medium with 10% FBS. Cells were seeded in a round bottom 96-well plate at the concentration of 200,000 cells/well. A 10-point dilution series of test compound (top dose 10 uM, 1:5 dilution) was added to the well using the liquid dispenser (Tecan D300e) and incubated for 1 hour at 37 C. Then human INFα recombinant protein (R&D Systems) was added to the well at the final concentration of 5000 units/ml and incubated for 15 minutes at 37 C. Cell lysates were prepared and analyzed by Phospho STAT5 (Tyr693) Kit (Meso Scale Discovery) following manufacturer's protocol.
For calculation of the inhibition rate, the relative pSTAT5 signal of each well=pSTAT5 signal of each well−the average pSTAT5 signal of baseline.
The inhibition %=(the average pSTAT5 signal of INFα treatment wells−the relative of pSTAT5 signal in each compound containing well)/the average pSTAT5 signal of INFα treatment wells*100%
The curve was plotted as the inhibition % (y-axis) vs. compounds concentration (x-axis) and is fitted with log (inhibitor) vs. normalized response—Variable slope by GraphPad Prism7.0.

In another test the test system is IFNa, PBMCs, p-STAT3. Nature of the test: IFNa induced p-STAT3 in PBMCs. Particulars: PBMC; human PBMCs, IFNa stimulation. It counts as cell-based.

Some results are limits rather than exact numbers.

T2 sequence (O60674 545-809 limits assumed): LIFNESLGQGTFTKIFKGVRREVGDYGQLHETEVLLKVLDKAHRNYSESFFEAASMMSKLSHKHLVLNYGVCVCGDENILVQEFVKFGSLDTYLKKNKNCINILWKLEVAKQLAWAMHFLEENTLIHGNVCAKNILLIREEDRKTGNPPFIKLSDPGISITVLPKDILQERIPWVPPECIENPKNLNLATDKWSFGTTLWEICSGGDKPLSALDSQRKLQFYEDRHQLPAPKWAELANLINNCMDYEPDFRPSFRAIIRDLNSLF
T5 sequence (P29597 556-888): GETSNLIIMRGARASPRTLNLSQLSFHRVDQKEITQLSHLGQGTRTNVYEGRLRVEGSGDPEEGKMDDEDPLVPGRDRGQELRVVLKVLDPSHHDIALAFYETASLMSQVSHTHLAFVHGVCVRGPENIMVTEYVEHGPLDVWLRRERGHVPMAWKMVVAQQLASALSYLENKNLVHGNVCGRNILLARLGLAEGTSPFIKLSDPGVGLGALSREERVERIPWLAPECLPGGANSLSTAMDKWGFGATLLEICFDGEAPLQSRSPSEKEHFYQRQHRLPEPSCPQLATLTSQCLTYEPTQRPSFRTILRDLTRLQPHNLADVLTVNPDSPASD
T4 sequence (P52333 822-1111 limits assumed): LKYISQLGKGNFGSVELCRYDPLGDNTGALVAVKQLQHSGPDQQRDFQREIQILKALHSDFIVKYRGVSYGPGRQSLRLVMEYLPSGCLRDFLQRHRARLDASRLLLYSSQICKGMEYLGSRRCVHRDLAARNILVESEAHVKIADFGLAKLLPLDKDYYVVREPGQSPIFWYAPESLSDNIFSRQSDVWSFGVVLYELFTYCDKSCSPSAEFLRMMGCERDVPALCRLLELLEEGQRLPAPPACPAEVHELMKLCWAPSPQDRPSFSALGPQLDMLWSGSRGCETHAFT
T1 sequence (P23458 583-855 limits assumed): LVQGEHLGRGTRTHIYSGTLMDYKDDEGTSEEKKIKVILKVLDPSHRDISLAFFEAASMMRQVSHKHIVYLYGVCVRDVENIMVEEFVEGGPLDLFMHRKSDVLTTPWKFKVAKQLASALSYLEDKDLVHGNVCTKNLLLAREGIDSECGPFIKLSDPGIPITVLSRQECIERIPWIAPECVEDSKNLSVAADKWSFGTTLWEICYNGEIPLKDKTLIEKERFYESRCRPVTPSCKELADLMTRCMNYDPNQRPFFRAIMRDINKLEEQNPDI

The Kd is the equilibrium constant for the complex coming apart. As for `CNc1cc2nn3c(cnc13)C(=O)N[C@@H]1CCC[C@@H]1OCc1cc(c3nnn(C)c3c1)N2` [Compound 5], the dissociation constant (Kd) is 0.01 to 1 µM on JAK1 JH2; 1 to 10 µM at JAK2 JH2; ≥ 30 µM at TYK2 JH1; ≥ 30 µM on JAK3 JH1; < 0.01 µM in [1]; ≥ 30 µM at JAK2 JH1. In addition, at JAK1 JH1, the dissociation constant Kd is ≥ 30 µM.

Consider `[2H]C1([2H])O[C@@H]2CCC[C@H]2NC(=O)c2cnc3c(NC)cc(nn23)Nc2cc1cc1c2nnn1C` [Compound 50], for which the Kd was 1 to 10 µM at JAK1 JH2; 1 to 10 µM at JAK2 JH2; ≥ 30 µM at TYK2 JH1; 1 to 10 µM on JAK3 JH1; < 0.01 µM in test [1]; 10 to 30 µM on JAK2 JH1. For the same molecule, the Kd on JAK1 JH1 is ≥ 30 µM.

Take `[2H]C1([2H])O[C@H]2CCC[C@H]2NC(=O)c2cnc3c(NC)cc(nn23)Nc2cc1cc1c2nnn1C` [Compound 51]: the equilibrium dissociation constant (Kd) on JAK1 JH2 was 0.01 to 1 µM; on JAK2 JH2 it was 1 to 10 µM; on TYK2 JH1, ≥ 30 µM; on JAK3 JH1 it was 10 to 30 µM; in test [1], < 0.01 µM; at JAK2 JH1 it was ≥ 30 µM. Moreover, the dissociation constant (Kd) on JAK1 JH1 is ≥ 30 µM.

On to `CNc1cc2nn3c(cnc13)C(=O)N[C@@H]1CCC[C@H]1OCc1cc(c3c(c1)nnn3C)N2` [Compound 3], for which the Kd on JAK1 JH2 was 10 to 30 µM; at JAK2 JH2, ≥ 30 µM; on TYK2 JH1 it was ≥ 30 µM; on JAK3 JH1 it was ≥ 30 µM; in test [1], < 0.01 µM; on JAK2 JH1, ≥ 30 µM. The Kd at JAK1 JH1 is ≥ 30 µM.

As for `CNc1cc2nc3c(cnn13)C(=O)N1CC[C@H](C1)OCc1cc(c3nnn(C)c3c1)N2` [Compound 44], the equilibrium dissociation constant (Kd) is 1 to 10 µM at JAK1 JH2, ≥ 30 µM at TYK2 JH1 and < 0.01 µM in test [1].

For the molecule “(1^3E,1^4E,6^1R,6^2R)-3^1-Methyl-1^7-(methylamino)-3^1H-5-oxa-2,7-diaza-1(5,3),3(4,6)-dipyrazolo[1,5-a]pyrimidina-6(1,2)-cyclopentanacyclooctaphan-8-one [Compound 2]”, the dissociation constant (Kd) was 1 to 10 µM at JAK1 JH2, ≥ 30 µM at TYK2 JH1 and < 0.01 µM in [1].

As to `CNc1cc2nn3c(cnc13)C(=O)N[C@@H]1CCC[C@@H]1OCc1cc(c3c(c1)nnn3C)N2` [Compound 6, (6^1S,6^2R,E)-3^1-Methyl-1^8-(methylamino)-3^1H-5-oxa-2,7-diaza-1(6,3),3(7,5)-diimidazo[1,2-b]pyridazina-6(1,2)-cyclopentanacyclooctaphan-8-one], the Kd at JAK1 JH2 was 0.01 to 1 µM; on JAK2 JH2, 1 to 10 µM; on TYK2 JH1, ≥ 30 µM; on JAK3 JH1, ≥ 30 µM; in [1], < 0.01 µM; at JAK2 JH1, ≥ 30 µM. Moreover, the dissociation constant (Kd) on JAK1 JH1 is ≥ 30 µM.

For the molecule `CNc1cc2nc3c(cnn13)C(=O)N[C@@H]1CCC[C@H]1OCc1cc(c3nn(C)nc3c1)N2` [Compound 8], the equilibrium dissociation constant (Kd) on JAK1 JH2 is 0.01 to 1 µM; at TYK2 JH1, 10 to 30 µM; in [1], < 0.01 µM.

Consider “(1^3E,1^4E,3^4E,6^1R,6^2R)-3^2-Methyl-1^7-(methylamino)-3^2H-5-oxa-2,7-diaza-1(5,3),3(4,6)-dipyrazolo[1,5-a]pyrimidina-6(1,2)-cyclopentanacyclooctaphan-8-one [Compound 10]”, for which the dissociation constant (Kd) was 1 to 10 µM at JAK1 JH2, ≥ 30 µM on TYK2 JH1 and < 0.01 µM in test [1].

As for `CNc1cc2nn3c(cnc13)C(=O)N[C@@H]1CCC[C@H]1OCc1cc(c3nnn(C)c3c1)N2` [Compound 49], the figures for the Kd (on JAK1 JH2; on TYK2 JH1; in [1]) were 1 to 10 µM, ≥ 30 µM and < 0.01 µM, respectively.

As for `CNc1cc2nc3c(cnn13)C(=O)N1CC[C@@H](C1)OCc1cc(c3nnn(C)c3c1)N2` [Compound 45], the dissociation constant Kd on JAK1 JH2 is 1 to 10 µM; at TYK2 JH1, ≥ 30 µM; in test [1], < 0.01 µM.

For the molecule `CNc1cc2nn3c(cnc13)C(=O)N[C@@H]1CCC[C@@H]1OCc1cc(c3nn(C)nc3c1)N2` [Compound 7], the Kd on JAK1 JH2 is 0.01 to 1 µM; on JAK2 JH2, 10 to 30 µM; at TYK2 JH1 it was ≥ 30 µM; on JAK3 JH1, ≥ 30 µM; in test [1], < 0.01 µM; on JAK2 JH1 it was ≥ 30 µM. Moreover, at JAK1 JH1, the dissociation constant (Kd) is ≥ 30 µM.

As to `CNc1cc2nc3c(cnn13)C(=O)N[C@@H]1CCC[C@@H]1OCc1cc(c3nnn(C)c3c1)N2` [Compound 9], the Kd on JAK1 JH2 was 0.01 to 1 µM; at TYK2 JH1 it was ≥ 30 µM; in test [1], < 0.01 µM.

In the case of `CNc1cc2nn3c(cnc13)Nc1cc(cc3c1ncn3C)COC1CCCC1NC2=O` (stereo not shown) [Compound 12, (6^1R,6^2R,E)-3^1-Methyl-1^8-(methylamino)-3^1H-5-oxa-2,7-diaza-1(6,3)-imidazo[1,2-b]pyridazina-3(4,6)-benzo[d]imidazola-6(1,2)-cyclopentanacyclooctaphan-8-one], the dissociation constant (Kd) at JAK1 JH2 is 10 to 30 µM; at TYK2 JH1 it was ≥ 30 µM; in [1] it was < 0.01 µM.

Usually IC50 stands for the concentration needed to halve the response being measured. High values mean weaker potency, low ones greater potency. In the case of `CNc1cc2nn3c(cnc13)C(=O)N[C@@H]1CCC[C@H]1OCc1cc(c3nnn(C)c3c1)N2` [Compound 1], the Kd at JAK2 JH2 was 1 to 10 µM; on JAK3 JH1, 10 to 30 µM; in test [1], < 0.01 µM; on JAK2 JH1, ≥ 30 µM; at JAK1 JH1, ≥ 30 µM. For the same molecule, the IC50 in the test with IFNa, PBMCs, p-STAT5 was < 0.1 µM; in the test with IFNa, PBMCs, p-STAT3, < 0.1 µM.

Take “(1^3E,1^4E,6^1S,6^2R)-3^1-Methyl-1^7-(methylamino)-3^1H-5-oxa-2,7-diaza-1(5,3),3(4,6)-dipyrazolo[1,5-a]pyrimidina-6(1,2)-cyclopentanacyclooctaphan-8-one [Compound 11]”: the dissociation constant (Kd) is 0.01 to 1 µM at JAK1 JH2, ≥ 30 µM at TYK2 JH1 and < 0.01 µM in test [1].
